Source: patent US20210246157A1, “CAMPTOTHECIN DERIVATIVES AND PREPARATION METHODS AND APPLICATIONS THEREOF” (priority 2018, published 2021)

What was measured:
[1] = Multi-dose in vivo antitumor activity study, mouse weight (Example 20); parameters: species or system mice; conditions: caudal vein once every 2 days
Procedure: (§1) The drugs are administered through the caudal veins of mice once every 2 days for a total of 7 times.
At the end of the treatment cycle, the orbital venous blood of the mice is collected for later blood routine test, the mice are killed by cervical dislocation method, and tumors are removed immediately and photographed. From day 0, the mice in each group are weighed every three days, and the weights are recorded. The weight average value of each group is calculated, and mouse weight variation curve is drawn according to statistical data. At the end of the treatment cycle, tumors are removed from anesthetized mice immediately and weighted, and the tumor weight of each group is recorded. The tumor inhibition rate (%) is calculated according to the following formula: […]

A549 = assay: Cytotoxicity test (MTT, 72 h); conditions: Homo sapiens, A549, 72 h, read-out: 50% Inhibiting Concentration value (IC50)
Procedure: (§2) In order to investigate the antitumor activities of the compounds, a variety of tumor cell lines for test are selected. Cells at logarithmic growth period are inoculated in a 96-well plate overnight, then drugs with a certain gradient concentrations are added, and incubation is carried out in a cell culture chamber (5% CO2, 37° C.) for 72 h.

HepG2 = assay: Cytotoxicity test (MTT, 72 h); conditions: Homo sapiens, HepG2, 72 h, read-out: 50% Inhibiting Concentration value (IC50)
Procedure: as §2

TPC-1 = assay: Cytotoxicity test (MTT, 72 h); conditions: Homo sapiens, TPC1, 72 h, read-out: 50% Inhibiting Concentration value (IC50)
Procedure: (§3) Cells at logarithmic growth period are inoculated in a 96-well plate overnight, then drugs with a certain gradient concentrations are added, and incubation is carried out in a cell culture chamber (5% CO2, 37° C.) for 72 h.

K562 = assay: Cytotoxicity test (MTT, 72 h); conditions: Homo sapiens, K562, 72 h, read-out: 50% Inhibiting Concentration value (IC50)
Procedure: as §2

143B = assay: Cytotoxicity test (MTT, 72 h); conditions: Homo sapiens, read-out: 50% Inhibiting Concentration value (IC50)
Procedure: as §2

HCT-116 = assay: Cytotoxicity test (MTT, 72 h); conditions: Homo sapiens, HCT-116, 72 h, read-out: 50% Inhibiting Concentration value (IC50)
Procedure: as §2

PANC-1 = assay: Cytotoxicity test (MTT, 72 h); conditions: Homo sapiens, PANC-1, 72 h, read-out: 50% Inhibiting Concentration value (IC50)
Procedure: as §3

PC3 = assay: Cytotoxicity test (MTT, 72 h); conditions: Homo sapiens, PC-3, 72 h, read-out: 50% Inhibiting Concentration value (IC50)
Procedure: as §2

BGC-823 = assay: Cytotoxicity test (MTT, 72 h); conditions: Homo sapiens, BGC-823, 72 h, read-out: 50% Inhibiting Concentration value (IC50)
Procedure: as §2

Hela = assay: Cytotoxicity test (MTT, 72 h); conditions: Homo sapiens, read-out: 50% Inhibiting Concentration value (IC50)
Procedure: as §2

MDA-MB-231 = assay: Cytotoxicity test (MTT, 72 h); conditions: Homo sapiens, MDA-MB-231, 72 h, read-out: 50% Inhibiting Concentration value (IC50)
Procedure: as §2

HT-29 = assay: Cytotoxicity test (MTT, 72 h); conditions: Homo sapiens, HT-29, 72 h, read-out: 50% Inhibiting Concentration value (IC50)
Procedure: as §3

[2] = In vivo antitumor activity study, mouse weight (Example 19); parameters: species or system mice; conditions: 13.73 mg/kg i.v. once every three days
tumor = assay: Multi-dose in vivo antitumor activity, tumor volume (Example 20); parameters: species or system mice; conditions: for Mouse Tumor Volume: caudal vein once every 2 days
Procedure: as §1
Tumor volume is measured every three days from day 0. The maximum diameter (a) of the tumor is measured first, and then the longest radial line (b) perpendicular to the maximum diameter is measured, using mm as unit. Tumor volume is calculated according to the following formula: […]

SW-480 = assay: Cytotoxicity test (MTT, 72 h); conditions: Homo sapiens, SW480, 72 h, read-out: 50% Inhibiting Concentration value (IC50)
Procedure: as §3

SKOV-3 = assay: Cytotoxicity test (MTT, 72 h); conditions: Homo sapiens, SK-OV-3, 72 h, read-out: 50% Inhibiting Concentration value (IC50)
Procedure: as §3

[3] = day 0, high-dose group (H) 13.73 mg/kg
[4] = day 0, low-dose group (L) 3.433 mg/kg
[5] = day 0, medium-dose group (M) 6.865 mg/kg
[6] = day 3, high-dose group (H) 13.73 mg/kg
[7] = day 3, low-dose group (L) 3.433 mg/kg
[8] = day 3, medium-dose group (M) 6.865 mg/kg
[9] = day 6, high-dose group (H) 13.73 mg/kg
[10] = day 6, low-dose group (L) 3.433 mg/kg
[11] = day 6, medium-dose group (M) 6.865 mg/kg
[12] = day 9, high-dose group (H) 13.73 mg/kg
[13] = day 9, low-dose group (L) 3.433 mg/kg
[14] = day 9, medium-dose group (M) 6.865 mg/kg
[15] = day 12, high-dose group (H) 13.73 mg/kg
[16] = day 12, low-dose group (L) 3.433 mg/kg
[17] = day 12, medium-dose group (M) 6.865 mg/kg
[18] = day 15, high-dose group (H) 13.73 mg/kg
[19] = day 15, low-dose group (L) 3.433 mg/kg
[20] = day 15, medium-dose group (M) 6.865 mg/kg
[21] = day 18, high-dose group (H) 13.73 mg/kg
[22] = day 18, low-dose group (L) 3.433 mg/kg
[23] = day 18, medium-dose group (M) 6.865 mg/kg
[24] = day 21, high-dose group (H) 13.73 mg/kg
[25] = day 21, low-dose group (L) 3.433 mg/kg
[26] = day 21, medium-dose group (M) 6.865 mg/kg

## CCc1c2c(nc3ccc(OC(=O)OCCOCCOCCOCc4cn(CCO[C@H]5O[C@@H](CO)[C@H](O)[C@@H](O)[C@@H]5O)nn4)cc13)-c1cc3c(c(=O)n1C2)COC(=O)[C@]3(O)CC [Compound 58]
[1]; [3]
  Mouse Weight: 16.69 g
[1]; [4]
  Mouse Weight: 17.94 g
[1]; [5]
  Mouse Weight: 16.55 g
[1]; [6]
  Mouse Weight: 17.60 g
[1]; [7]
  Mouse Weight: 16.34 g
[1]; [8]
  Mouse Weight: 16.61 g
[1]; [9]
  Mouse Weight: 16.26 g
[1]; [10]
  Mouse Weight: 16.36 g
[1]; [11]
  Mouse Weight: 15.81 g
[1]; [12]
  Mouse Weight: 17.28 g
[1]; [13]
  Mouse Weight: 17.00 g
[1]; [14]
  Mouse Weight: 17.23 g
[1]; [15]
  Mouse Weight: 16.88 g
[1]; [16]
  Mouse Weight: 16.96 g
[1]; [17]
  Mouse Weight: 16.17 g
[1]; [18]
  Mouse Weight: 16.61 g
[1]; [19]
  Mouse Weight: 16.41 g
[1]; [20]
  Mouse Weight: 15.46 g
[1]; [21]
  Mouse Weight: 16.06 g
[1]; [22]
  Mouse Weight: 17.28 g
[1]; [23]
  Mouse Weight: 16.47 g
[1]; [24]
  Mouse Weight: 16.50 g
[1]; [25]
  Mouse Weight: 16.97 g
[1]; [26]
  Mouse Weight: 16.65 g
A549
  IC50: 3040 nM
HepG2
  IC50: 625 nM
TPC-1
  IC50: 11200 nM
K562
  IC50: 1660 nM
143B
  IC50: 7790 nM
HCT-116
  IC50: 2000 nM
PANC-1
  IC50: 3650 nM
PC3
  IC50: 2530 nM
BGC-823
  IC50: 212 nM
Hela
  IC50: 3650 nM
MDA-MB-231
  IC50: 521 nM
HT-29
  IC50: 5250 nM
[2]; day 0
  Mouse Weight: 23.57 g
[2]; day 3
  Mouse Weight: 23.71 g
[2]; day 6
  Mouse Weight: 24.00 g
[2]; day 9
  Mouse Weight: 24.76 g
[2]; day 12
  Mouse Weight: 24.93 g
[2]; day 15
  Mouse Weight: 24.34 g
[2]; day 18
  Mouse Weight: 24.04 g
[2]; day 21
  Mouse Weight: 24.12 g
tumor; [3]
  Mouse Tumor Volume: 120.63 mm^3
tumor; [4]
  Mouse Tumor Volume: 110.67 mm^3
tumor; [5]
  Mouse Tumor Volume: 113.01 mm^3
tumor; [6]
  Mouse Tumor Volume: 151.62 mm^3
tumor; [7]
  Mouse Tumor Volume: 164.30 mm^3
tumor; [8]
  Mouse Tumor Volume: 106.18 mm^3
tumor; [9]
  Mouse Tumor Volume: 206.78 mm^3
tumor; [10]
  Mouse Tumor Volume: 235.34 mm^3
tumor; [11]
  Mouse Tumor Volume: 122.56 mm^3
tumor; [12]
  Mouse Tumor Volume: 254.08 mm^3
tumor; [13]
  Mouse Tumor Volume: 252.37 mm^3
tumor; [14]
  Mouse Tumor Volume: 151.19 mm^3
tumor; [15]
  Mouse Tumor Volume: 317.44 mm^3
tumor; [16]
  Mouse Tumor Volume: 316.07 mm^3
tumor; [17]
  Mouse Tumor Volume: 141.38 mm^3
tumor; [18]
  Mouse Tumor Volume: 430.78 mm^3
tumor; [19]
  Mouse Tumor Volume: 375.47 mm^3
tumor; [20]
  Mouse Tumor Volume: 141.13 mm^3
tumor; [21]
  Mouse Tumor Volume: 519.79 mm^3
tumor; [22]
  Mouse Tumor Volume: 401.94 mm^3
tumor; [23]
  Mouse Tumor Volume: 134.18 mm^3
tumor; [24]
  Mouse Tumor Volume: 555.67 mm^3
tumor; [25]
  Mouse Tumor Volume: 433.61 mm^3
tumor; [26]
  Mouse Tumor Volume: 142.06 mm^3
tumor; high-dose group, after last administration
  increase of tumor volume compared with other groups (in words): slowest increase
tumor; high-dose groups, same dosage (10 mg/kg), p<0.001
  tumor inhibition effects of the high-dose groups compared with CPT-11 (in words): better than that of positive control group CPT-11
tumor; low, medium and high dose
  dose dependence of tumor inhibition (in words): dose-dependent
SW-480
  IC50: 254 nM
SKOV-3
  IC50: 750 nM
